Experimental data published in patent US7234365B2, “Methods and systems for dissolution testing” (Symyx Technologies, Inc., priority 2003, dated 2007).

Experiments:
[1] = High throughput dissolution screening of Aspirin; assay type: physicochemical; conditions: 10 mg powdered Aspirin in 10 ml deionized water, shaker, UV detector, 37 second sampling frequency for 30 minutes, FIG. 7
Protocol: A 10 mg of powdered Aspirin standard from Aldrich was weighted into a 20 ml scintillation vial and put on a shaker at a robot platform. The shaker was then turned on and an automated dispensing unit with a 10 ml syringe dispensed 10 ml of deionized water into the 20 ml scintillation vial containing the 10 mg of Aspirin thereby initiating dissolution of the 10 mg of Aspirin into the 10 ml of deionized water to form, over time, a solution having an increasing concentration of aspirin.
Thereafter, an automated sampling unit aspirated approximately 300 μL of the solution (the sample itself never enters the syringe) through an in-line filter allowing a sampled aliquot of the filtered solution to enter a switching valve and fill a 20 μL sample loop connected to the ports of the switching valve. Once the 20 μL sample loop was filled with a portion of the aliquot, the switching valve was switched to a second position by automation, causing the sub-aliquot contained in the 20 μL sample loop to be discharged into an analytical unit. The analytical unit comprised a syringe pump and an UV detector, for determining concentration. At this point, the automated sampling unit returned the remainder portion of the filtered aliquot back through the filter and back into the solution contained in the scintillation vial. […]

[2] = addition of viscogens such as glycerol or Ficoll; cited from earlier work

Compound | time to reach maximum dissolution [1] | photo stability [2]
CC(=O)Oc1ccccc1C(=O)O [Aspirin] | less than 10 minutes | 
Vitamin-B12 |  | increase in photo stability
